Where two headings read alike, the source gives them in different places.
Assays:
[1] = biological target: T1, GST-CDK10/Strep2-CycM (CDK10/CycM) (Homo sapiens, UniProt Q15131); assay: ADP-Glo luminescent kinase assay, CDK10tide (Jar1) peptide; type: biochemical
T1 construct: GST-CDK10 co-expressed with Strep2-CycM (pFastBacDual) in Sf9 cells, glutathione sepharose purified heterodimer, tags kept; with Cyclin-Q
Excerpt: ADP-Glo luminescent kinase assay, CDK10tide (Jar1) peptide on GST-CDK10/Strep2-CycM (CDK10/CycM)

[2] = biological target: T1, GST-CDK10/Strep2-CycM (CDK10/CycM); assay: in vitro kinase assay; type: biochemical; details: for inhibition at 1 µM: read-out: % inhibition at 1 uM
[3] = substrate: Nc1ncnc2c1ncn2[C@@H]1O[C@H](COP(=O)(O)OP(=O)(O)OP(=O)(O)O)[C@@H](O)[C@H]1O; assay: ADP-Glo luminescent kinase assay, ATP titration, Michaelis-Menten; type: biochemical, Homo sapiens; details: […] CDK10tide, […] enzyme, […] ATP, […] MgCl2, pH […]
[4] = read-out: CDK10/CycM (measured herein)

T1 sequence (Q8N1B3 whole entry partner, one chain of several): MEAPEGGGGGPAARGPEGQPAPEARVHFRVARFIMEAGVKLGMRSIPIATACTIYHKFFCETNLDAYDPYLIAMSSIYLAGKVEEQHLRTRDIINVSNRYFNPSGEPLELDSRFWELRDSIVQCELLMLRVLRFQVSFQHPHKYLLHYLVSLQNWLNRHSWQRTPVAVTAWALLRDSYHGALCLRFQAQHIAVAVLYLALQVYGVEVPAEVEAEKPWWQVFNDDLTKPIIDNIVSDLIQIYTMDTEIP

## CC(=O)N[C@@H]1CCC[C@H](C(=O)Nc2cc(-c3cnn4c3CC(C)(C)C4)c(Cl)cn2)C1 [AZD4573]
[1]; [4]
  IC50: 36 nM

## CC[C@H](CO)Nc1nc(NCc2ccc(-c3ccccn3)cc2)c2ncn(C(C)C)c2n1 [CR8]
[2]
  inhibition at 1 µM: < 50%

## CCc1cnn2c(NCc3ccc[n+]([O-])c3)cc(N3CCCC[C@H]3CCO)nc12 [dinaciclib]
[1]; read-out: CDK9/CycT1 (measured herein)
  IC50: 13 nM

## Cn1cnc2c(NCc3ccccc3)nc(NCCO)nc21 [olomoucine]
[2]
  inhibition at 1 µM: < 50%

## CC(=O)c1c(C)c2cnc(Nc3ccc(N4CCNCC4)cn3)nc2n(C2CCCC2)c1=O [palbociclib]
[2]
  inhibition at 1 µM: < 50%

## CN1CC[C@H](c2c(O)cc(O)c3c(=O)cc(-c4ccccc4Cl)oc23)[C@H]1CO [riviciclib]
[1]; [4]
  IC50: 280 nM

## CC[C@H](CO)Nc1nc(NCc2ccccc2)c2ncn(C(C)C)c2n1 [roscovitine]
[2]
  inhibition at 1 µM: < 50%

## meriolin
[2]; data not shown, text: not greater than […]
  % inhibition at 1 uM: < 50%

B1: GST-CDK10/Strep2-CycM (CDK10/CycM) (Homo sapiens) (protein)
chain: MAEPDLECEQIRLKCIRKEGFFTVPPEHRLGRCRSVKEFEKLNRIGEGTYGIVYRARDTQTDEIVALKKVRMDKEKDGIPISSLREITLLLRLRHPNIVELKEVVVGNHLESIFLVMGYCEQDLASLLENMPTPFSEAQVKCIVLQVLRGLQYLHRNFIIHRDLKVSNLLMTDKGCVKTADFGLARAYGVPVKPMTPKVVTLWYRAPELLLGTTTQTTSIDMWAVGCILAELLAHRPLLPGTSEIHQIDLIVQLLGTPSENIWPGFSKLPLVGQYSLRKQPYNNLKHKFPWLSEAGLRLLHFLFMYDPKKRATAGDCLESSYFKEKPLPCEPELMPTFPHHRNKRAAPATSEGQSKRCKP
notes: GST-CDK10 co-expressed with Strep2-CycM (pFastBacDual) in Sf9 cells, glutathione sepharose purified heterodimer, tags kept; with Cyclin-Q
[3]
  Km: 177 µM

Reference: paper PMC7056863, “Development of a CDK10/CycM in vitro Kinase Screening Assay and Identification of First Small-Molecule Inhibitors” (Frontiers in Chemistry, 2020)
